This is an account of results in patent US4528294A, “Benzoyl-phenyl-piperidine derivatives” (Societe de Recherches Industrielle S.O.R.I., priority 1981, dated 1985).

Data set [1] has as its system lymphocytes of the mouse. In words: Stimulation in vitro of mouse lymphocytes (tritium-marked thymidine incorporation). Particulars: at the optimal concentration; thymidine incorporation in 24 hours with respect to control culture; PHA and PWM. The class given is cell-based, mouse (DBA/2). On the procedure:
Lymphocytes (5×10^5 cells per measurement) extracted from the spleen of inbred mice (DBA/2) are incubated for 36 hours at 37° C. in an atmosphere of oxygen with 5% of CO2 in a culture medium (RPMI 1640) containing:
10% (by weight) of foetal calf serum (100 μl per measurement)
10 μl of a solution of lectins in the proportion of 5 μg/ml of phytohemaglutinine (PHA) and 40 μg/ml of Pokeweed Mitogen (PWM), and
the substance to be tested.
The activity is evaluated by measuring the radio-activity obtained by incorporation in 24 hours of 2 μCi (i.e. 7.4×10^4 becquerels) of tritium-marked thymidine, with respect to a control culture.
The results obtained are grouped together in Table II hereinbelow which gives the optimum concentration of the products in μg/ml, and where symbols +, ++ and +++ signify: […]
Background: Dividing cells build labelled thymidine or BrdU into new DNA.

Data set [2] has as its system mouse. Put plainly: Toxicity (LD-50 and LD-0), i.p. route in the mouse. The class given is in vivo. On the procedure:
(§1) The toxicity (LD-50 and LD-0) was determined by the i.p. route in the mouse according to the technique of S. T. Litchfield described in J. Pharm. Exp. Ther. 96, 99 (1949).

A short description of data set [3]: Toxicity (LD-50 and LD-0), i.p. route in the mouse. In kind it is in vivo. To be noted: in vivo, ip. As for the experimental part: as §1
The subject of data set [4] is delayed hypersensitivity. In words: Delayed hypersensitivity test. In kind it is in vivo. Particulars: single dose of 5 mg/kg per os, mouse, three days before sensitization. The text has this: Furthermore, the product of Example 2 (Code No. 442) was studied according to the delayed hypersensitivity test following the modus operandi described by P. H. Lagrange et al., J. Exp. Med. 139, 1529-1539 (1974).

Each structure is given as a SMILES string.

`CC1CCN(c2ccc([N+](=O)[O-])cc2C(=O)c2ccc(Cl)cc2)CC1` [Example 1, [2-(4-methyl-1-piperidinyl)-5-nitrophenyl]-(4-chlorophenyl)-methanone]: the Stimulation result in data set [1] is reported as “++ (stimulation of 50% to 100%)”. Further, in data set [2], the LD-0 is listed as over 800 mg/kg.
For orientation: LD50 means the dose at which mortality reaches 50%. The low end stands for greater toxicity, the high end for lower toxicity. Consider `CC1CCN(c2ccc(N)cc2C(=O)c2ccc(Cl)cc2)CC1` [Example 2, [2-(4-methyl-1-piperidinyl)-5-aminophenyl]-(4-chlorophenyl)-methanone], for which, in data set [1], the Stimulation entry was “+++ (stimulation greater than 100%)”. This molecule also had an LD50 in data set [3] of 1300 mg/kg. The “reduction of the delayed hypersensitivity” value in data set [4] is given as “reduction by half”.
With `CCOC(=O)Nc1ccc(N2CCC(C)CC2)c(C(=O)c2ccc(Cl)cc2)c1` [Example 3, [2-(4-methyl-1-piperidinyl)-5-(N-ethoxycarbonyl-amino)-phenyl]-(4-chlorophenyl)-methanone], the Stimulation entry in data set [1] is reported as “++ (stimulation of 50% to 100%)”. For the same molecule, in data set [2], the LD-0 is over 800 mg/kg.
With `CC1CCN(c2ccccc2C(=O)c2ccccc2)CC1` [Example 4, [2-(4-methyl-1-piperidinyl)-phenyl]-phenyl-methanone], the LD-0 in data set [2] is listed as over 800 mg/kg.
Consider `CC1CCN(c2ccc(N(C)C)cc2C(=O)c2ccc(Cl)cc2)CC1` [Example 5], for which the Stimulation result in data set [1] is “+ (stimulation of 0 to 50%)”. Besides, the LD-0 in data set [2] was over 800 mg/kg.
In the same order, the values of `CNc1ccc(N2CCC(C)CC2)c(C(=O)c2ccc(Cl)cc2)c1` [Example 6, [2-(4-methyl-1-piperidinyl)-5-methylamino-phenyl]-(4-chlorophenyl)methanone] are “+ (stimulation of 0 to 50%)” and over 800 mg/kg.
In the case of `CC1CCN(c2ccc(N)cc2C(=O)c2ccccc2Cl)CC1` [Example 8], the Stimulation result in data set [1] is on record as “+ (stimulation of 0 to 50%)”. For the same molecule, the LD-0 in data set [2] is given as over 800 mg/kg.
Take `COc1ccc(C(=O)c2cc(N)ccc2N2CCC(C)CC2)cc1OC` [Example 9]: the Stimulation result in data set [1] is recorded as “+ (stimulation of 0 to 50%)”. In addition, in data set [2], the LD-0 is on record as over 800 mg/kg.
The corresponding values for `Nc1ccc(N2CCCCC2)c(C(=O)c2ccc(Cl)cc2)c1` [Example 12] are “+ (stimulation of 0 to 50%)” and over 800 mg/kg.
Turning to `CC1CCCN(c2ccc(N)cc2C(=O)c2ccc(Cl)cc2)C1` (centres unmarked) [Example 14], in data set [1], the Stimulation entry is “++ (stimulation of 50% to 100%)”.
Take `Cc1ccc(C(=O)c2cc(N)ccc2N2CCC(C)CC2)cc1` [Example 15]: in data set [1], the Stimulation entry is “++ (stimulation of 50% to 100%)”. The same molecule yielded an LD-0 in data set [2] of over 800 mg/kg.
For the molecule `Cc1ccc(C(=O)c2cc(N)ccc2N2CCC(C)CC2)c(C)c1` [Example 16], the Stimulation entry in data set [1] is given as “++ (stimulation of 50% to 100%)”. In data set [3], this molecule yielded an LD50 of 750 mg/kg.
`CC1CCN(c2ccc(N)cc2C(=O)c2ccc(F)cc2)CC1` [Example 17]: the Stimulation result in data set [1] was “+ (stimulation of 0 to 50%)”. Further, the LD-0 in data set [2] is reported as over 800 mg/kg.
In the same order, the values of `CC1CC(C)CN(c2ccc(N)cc2C(=O)c2ccc(Cl)cc2)C1` (centres unmarked) [Example 19] are “++ (stimulation of 50% to 100%)” and over 800 mg/kg.
The corresponding values for `CC1CCCCN1c1ccc(N)cc1C(=O)c1ccc(Cl)cc1` (centres unmarked) [Example 20] are “+++ (stimulation greater than 100%)” and over 800 mg/kg.
Take `CC1CCN(c2ccccc2C(=O)c2ccc(Cl)cc2)CC1` [Example 21]: the LD50 in data set [3] turned out to be 1800 mg/kg.
With `CC1CCN(c2ccc(Cl)cc2C(=O)c2ccc(Cl)cc2)CC1` [Example 22], the Stimulation result in data set [1] is given as “+ (stimulation of 0 to 50%)”. In addition, the LD50 in data set [3] turned out to be 1800 mg/kg.
Take `COc1ccc(C(=O)c2cc(N)ccc2N2CCC(C)CC2)cc1` [Example 23]: the Stimulation result in data set [1] was “++ (stimulation of 50% to 100%)”. Besides, in data set [2], the LD-0 is given as over 800 mg/kg.
The corresponding values for `COc1ccc(C(=O)c2ccccc2N2CCC(C)CC2)cc1` [Example 24] are “+ (stimulation of 0 to 50%)” and over 800 mg/kg.
`CC1CCN(c2ccc(N)cc2C(=O)c2ccccc2)CC1` [Example 27, [2-(4-methyl-1-piperidinyl)-5-aminophenyl]-phenyl-methanone]: the Stimulation result in data set [1] is recorded as “+ (stimulation of 0 to 50%)”. In data set [2], this molecule registered an LD-0 of over 800 mg/kg.
The corresponding values for `CC1CCN(c2ccc(N)cc2C(=O)c2ccc(Cl)c(Cl)c2)CC1` [Example 28] are “++ (stimulation of 50% to 100%)” and over 800 mg/kg.
In the same order, the values of `Cc1cc(C(=O)c2cc(N)ccc2N2CCC(C)CC2)cc(C)c1C` [Example 29] are “+ (stimulation of 0 to 50%)” and over 800 mg/kg.
In the case of `CC1CCN(c2ccc(N)cc2C(=O)c2ccc(Br)cc2)CC1` [Example 30], the LD-0 in data set [2] was over 800 mg/kg.
On the same count and under the same terms, as for `CC(C)(C)C1CCN(c2ccc(N)cc2C(=O)c2ccc(Cl)cc2)CC1` [Example 31], the figure is over 800 mg/kg.
